Test results reported in ChEMBL document CHEMBL1131586, “New antipsychotic agents with serotonin and dopamine antagonist properties based on a pyrrolo[2,1-b][1,3]benzothiazepine structure” (J Med Chem, 1998).

Assays:
[1] = biological target: Sodium-dependent dopamine transporter (Rattus norvegicus) (UniProt P23977); assay: Inhibition of dopamine uptake from dopamine uptake site
D(3) dopamine receptor = D(3) dopamine receptor (Rattus norvegicus, UniProt P19020)
Description: Binding affinity which represents concentration giving half-maximal inhibition of [3H]7-OH-DPAT binding to Dopamine receptor D3 in rat tissue homogenate

Rattus norvegicus [2] = assay: Effect of compound on apomorphine induced locomotor hyperactivity (APO-induced LMA), […] at 10 umol/kg upon subcutaneous administration; LMA (locomotor activity); format: functional
Rattus norvegicus [3] = assay: Effect of compound on […], […] at 3 umol/kg upon subcutaneous administration; Catalepsy = 0/4; format: functional
Rattus norvegicus [4] = assay: Effect of compound on apomorphine induced locomotor hyperactivity (APO-induced LMA), […] at 30 umol/kg upon subcutaneous administration; LMA (locomotor activity); format: functional
Rattus norvegicus [5] = assay: Effect of compound on […], […] at 1 umol/kg upon subcutaneous administration; Catalepsy = 0/4; format: functional
Rattus norvegicus [6] = assay: Effect of compound on apomorphine induced locomotor hyperactivity (APO-induced LMA), […] at 1 umol/kg upon subcutaneous administration; LMA (locomotor activity); format: functional
Rattus norvegicus [7] = assay: Effect of compound on apomorphine induced locomotor hyperactivity (APO-induced LMA), […] at 3 umol/kg upon subcutaneous administration; LMA (locomotor activity); format: functional
Rattus norvegicus [8] = assay: Effect of compound on […], […] at 10 umol/kg upon subcutaneous administration; Catalepsy = 1/4; format: functional
Rattus norvegicus [9] = assay: Effect of compound on […], […] at 30 umol/kg upon subcutaneous administration; Catalepsy = 4/4; format: functional
[10] = biological target: T1, Serotonin 2 (5-HT2) receptor (Rattus norvegicus, UniProt P30994+P08909+P14842)
Description: pKi value for 5-hydroxytryptamine 2 receptor binding site

Rattus norvegicus [11] = assay: Effect of compound on […], […] at 10 umol/kg upon subcutaneous administration; Catalepsy = 0/4; format: functional
[12] = biological target: T1, Serotonin 2 (5-HT2) receptor; remark: listed apart in the source
Description: Binding affinity which represents concentration giving half-maximal inhibition of [3H]ketanserin binding to 5-hydroxytryptamine 2 receptor rat tissue homogenate

Rattus norvegicus [13] = assay: Effect of compound on […], […] at 30 umol/kg upon subcutaneous administration; Catalepsy = 0/4; format: functional

Sodium-dependent dopamine transporter (Rattus norvegicus), sequence (P23977 whole entry, looked up): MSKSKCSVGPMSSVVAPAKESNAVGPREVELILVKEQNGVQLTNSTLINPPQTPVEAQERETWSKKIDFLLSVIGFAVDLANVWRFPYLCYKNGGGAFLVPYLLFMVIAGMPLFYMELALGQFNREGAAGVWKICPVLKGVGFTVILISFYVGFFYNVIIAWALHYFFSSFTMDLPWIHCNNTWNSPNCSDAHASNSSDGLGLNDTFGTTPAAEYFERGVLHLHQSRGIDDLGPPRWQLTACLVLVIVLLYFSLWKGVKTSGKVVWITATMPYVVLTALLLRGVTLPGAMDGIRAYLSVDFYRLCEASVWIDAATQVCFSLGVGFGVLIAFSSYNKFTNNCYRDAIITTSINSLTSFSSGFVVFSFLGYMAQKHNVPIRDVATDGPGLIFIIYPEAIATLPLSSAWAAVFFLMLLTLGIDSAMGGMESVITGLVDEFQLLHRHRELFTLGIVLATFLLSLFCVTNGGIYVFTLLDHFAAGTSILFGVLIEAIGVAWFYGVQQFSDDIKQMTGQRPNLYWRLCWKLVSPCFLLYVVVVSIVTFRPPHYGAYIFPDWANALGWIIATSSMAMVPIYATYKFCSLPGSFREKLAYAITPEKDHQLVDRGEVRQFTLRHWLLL
D(3) dopamine receptor, sequence (P19020 whole entry): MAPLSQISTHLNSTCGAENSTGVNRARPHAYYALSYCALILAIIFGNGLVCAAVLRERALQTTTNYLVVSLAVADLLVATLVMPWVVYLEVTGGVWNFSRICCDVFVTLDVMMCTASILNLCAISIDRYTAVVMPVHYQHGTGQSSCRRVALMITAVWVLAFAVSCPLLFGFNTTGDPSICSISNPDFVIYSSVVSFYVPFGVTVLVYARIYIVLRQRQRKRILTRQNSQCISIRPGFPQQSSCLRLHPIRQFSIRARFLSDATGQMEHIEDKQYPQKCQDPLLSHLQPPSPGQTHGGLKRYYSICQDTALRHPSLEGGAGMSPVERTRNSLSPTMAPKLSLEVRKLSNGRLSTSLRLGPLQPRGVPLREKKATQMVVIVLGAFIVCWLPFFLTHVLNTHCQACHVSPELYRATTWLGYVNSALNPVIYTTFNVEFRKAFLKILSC

| Structure (SMILES) | IC50 [1] [nM] | Ki (D(3) dopamine receptor) [nM] | LMA (Rattus norvegicus [2]) | Catalepsy (Rattus norvegicus [3]) | LMA (Rattus norvegicus [4]) | Catalepsy (Rattus norvegicus [5]) | LMA (Rattus norvegicus [6]) | LMA (Rattus norvegicus [7]) | Catalepsy (Rattus norvegicus [8]) | Catalepsy (Rattus norvegicus [9]) | Log Ki [10] | Catalepsy (Rattus norvegicus [11]) | Ki [12] [nM] | Catalepsy (Rattus norvegicus [13]) |
| --- | --- | --- | --- | --- | --- | --- | --- | --- | --- | --- | --- | --- | --- | --- |
| CN1CCN(C2Cn3cccc3Sc3ccc(Cl)cc32)CC1 (racemic) | 6500 | 4.1 |  |  |  |  |  |  |  |  |  |  |  |  |
| CN1CCN(C2Cn3cccc3Sc3ccc(Cl)cc32)CC1.Cl.Cl (racemic) |  |  | 43 | 0 | 39 | 0 | 877 | 40 | 1 | 4 |  |  |  |  |
| Cc1cc2c(s1)Nc1ccccc1N=C2N1CCN(C)CC1 [OLANZAPINE] |  |  | 47 |  | 4 | 0 | 323 |  |  |  | -7.9 | 0 | 12 | 0 |
